Assay results as given in US20030068386A1, “Method of treating cancerous disease” (priority 2001, published 2003).

Experiments:
[1] = system: normal human fibroblasts; test: AS-induced toxicity to normal human fibroblasts, crystal violet cell number; type: cell-based; conditions: for effect on AS cytotoxicity to human fibroblasts: ascorbic acid 5 mM, POBN 10 mM, DMSO 0.2 M in incubation medium
Protocol: Human fetal fibroblasts were cultured as described herein. Briefly, human fetal hearts of gestational age 16-24 weeks are aseptically obtained after elective termination of normal pregnancy by dilatation and evacuation. The aorta is then cannulated for continuous perfusion of the coronary arteries with calcium-free Tyrode's solution (117 mM NaCl, 5.7 mM KCl, 11 mM glucose, 4.4 mM NaHCO3, 1.5 mM KH2PO4, 1.7 mM MgCl2, HEPES 20 mM, pH 7.4) containing 1 U/ml of Na-heparin at 37° C., bubbled with 100% O2 as described for the Langendorff preparation. After 15 min of washing to clear the blood from the heart, fresh calcium-free Tyrode's solution containing 1.5 mg/ml collagenase A (type III) is recirculated for approximately 20 minutes. The heart dissociates spontaneously, allowing cells to slowly drip and fall on a Petri dish containing 0.25% trypsin, 1 mM EDTA in HBSS. Clumps of cells are dissociated and the resulting suspension poured over a cell strainer. Cells are centrifuged and the pellet resuspended in 20 ml of culture medium [DME supplemented with 10% fetal bovine serum, 50 U/ml PCN, 50 U/ml streptomycin, […] gentamicin, 1 mM non-essential amino acid (Gibco Laboratories), 0.1 mM essential medium vitamins (Gibco Laboratories), 2 mM glutamine, 0.1 mM Na pyruvate]. To obtain primary cardiac fibroblasts, the isolate will be plated in flasks (20 min at 37° C.). The fibroblasts will be passaged at 12×10^6 cells per 75 cm2 culture flask and grown in 5% CO2 at 37° C. After 3 passages in culture, the fibroblast stain using the fibroblast-specific antibody (monoclonal anti-human fibroblast surface protein, Clone 1B10).
The concentration of the hydroxylamine was determined by co-injection of 4-methylpicoline as described in Analytical Chemistry, Stoyanovsky, et al., supra. […] Normal human fibroblasts (800 cells per plate) were treated for 30 minutes at 37° C. with AS in 50 mM phosphate buffer (pH 6.3, open circles; pH 7.4, filled circles) containing 0.15 M NaCl and 0.2 mM CaC12. Thereafter, the fluid was removed, the cells were covered with minimal essential medium containing 10% fetal bovine serum (Sigma Chem. Co.,St. Louis, Mo.) and incubated at 37° C.; after 4 hours, the cell number was determined by the crystal violet method as known by those skilled in the art. Results are from four independent experiments. Each experimental point represents the mean of triplicate±SEM % (Mean value±standard error; n=3) of controls. […] The cells were treated as indicated in FIG. 5B except that in the incubation medium was included (1) ascorbic acid (5 mM) plus SOD (superoxide dismuthase)(300 U per ml) plus catalase (500 U per ml) filled circles, all purchased from Sigma Chem. Co.; (2) POBN (10 mM) open circles; or 3. DMSO ([…]) filled triangles.

[2] = cited from earlier work
[3] = system: breast cancer cells (BRCA1, OMIM Number 113705); test: AS-induced toxicity to breast cancer cells, crystal violet cell number; type: cell-based, human

CC(C)(C)[N+]([O-])=Cc1cc[n+]([O-])cc1 [POBN, alpha-(4-Pyridyl-1-oxide)-N-tert-butylnitrone, reference compound]
effect on AS cytotoxicity to human fibroblasts [1]: protective effect

O=C1O[C@H]([C@@H](O)CO)C(O)=C1O [ascorbic acid, reference compound]
effect on AS cytotoxicity to human fibroblasts [1]: protective effect

C[S+](C)[O-] [DMSO, dimethyl sulfoxide, reference compound]
effect on AS cytotoxicity to human fibroblasts [1]: protective effect

[Na+].[Na+].[O-][N+]([O-])=NO [AS, sodium trioxodinitrate]
stability ([2]; alkaline solutions): relatively stable | pK1 ([2]; aqueous solution): 3.0 | pK2 ([2]; aqueous solution): 9.35 | rate of decomposition ([2]; pH interval of 3.5 to 8.5): rapid, proton-independent | death of treated cells ([3]; pH 6.2, 30 minutes at 37° C. with AS, cell number after 4 hours): approximately 70% | cell toxicity ([3]; pH 7.4): not observed | toxicity to normal human fibroblasts ([1]; acidic conditions): toxic | toxicity to normal human fibroblasts ([1]; non-acidic conditions): not toxic | cell toxicity ([1]; pH 7.4): not observed
